Data published in US20220289794A1, “SYNTHETIC ANTIMICROBIAL PEPTIDES” (priority 2019, published 2022).
Converted amounts (≈) assume the structure as drawn. Non-standard residues stand in square brackets, D forms with d. Residues, ends and D or L forms follow the SMILES beside them. Dip = N[C@H](C(=O)O)C(c1ccccc1)c1ccccc1; 2Nal = N[C@@H](Cc1ccc2ccccc2c1)C(=O)O; d2Nal = N[C@H](Cc1ccc2ccccc2c1)C(=O)O; Dab = NCC[C@H](N)C(=O)O

Experiments:
[1] = test system: Methicillin-resistant Staphylococcus aureus MRSA (ATCC BAA-1556); conditions: ATCC BAA-1556
S. aureus ATCC 29213 = conditions: ATCC 29213
[2] = test system: Pseudomonas aeruginosa (ATCC 27883); conditions: ATCC 27883
[3] = test system: Escherichia coli (ATCC 25922); conditions: ATCC 25922
human red blood cells = test system: human red blood cells; set-up: unit not given beside the values

SMILES | MIC MRSA ATCC BAA-1556 [1] | MIC S. aureus ATCC 29213 (S. aureus ATCC 29213) | MIC P. aeruginosa ATCC 27883 [2] | MIC E. coli ATCC 25922 [3] | HC50 (human red blood cells)
N=C(N)NCCC[C@@H]1NC(=O)[C@@H](CCCNC(=N)N)NC(=O)[C@H](Cc2c[nH]c3ccccc23)NC(=O)[C@@H](Cc2c[nH]c3ccccc23)NC(=O)[C@H](Cc2c[nH]c3ccccc23)NC(=O)[C@@H](Cc2c[nH]c3ccccc23)NC(=O)[C@H](CCCNC(=N)N)NC(=O)[C@@H](CCCNC(=N)N)NC1=O [IFX-034, c[arg-Arg-arg-Arg-trp-Trp-trp-Trp]] (cyclo(R[dR]R[dW]W[dW]W[dR])) | 6.2 µg/mL (≈ 4.53 µM) | 6.2 µg/mL (≈ 4.53 µM) | 25 µg/mL (≈ 18.3 µM) | 12.5 µg/mL (≈ 9.13 µM) | 320
N=C(N)NCCC[C@H](NC(=O)[C@H](CCCNC(=N)N)NC(=O)[C@@H](N)CCCNC(=N)N)C(=O)N[C@@H](Cc1ccc2ccccc2c1)C(=O)N[C@@H](Cc1ccc2ccccc2c1)C(=O)N[C@@H](Cc1ccc2ccccc2c1)C(=O)O [IFX-003-1, NH2-Arg-Arg-Arg-NaI -NaI-NaI-OH] (H-RRR[2Nal][2Nal][2Nal]-OH) | 3.1 µg/mL (≈ 2.87 µM) | 3.1 µg/mL (≈ 2.87 µM) | 25 µg/mL (≈ 23.2 µM) | 16 µg/mL (≈ 14.8 µM) | 310
N=C(N)NCCC[C@H](NC(=O)[C@H](CCCNC(=N)N)NC(=O)[C@H](CCCNC(=N)N)NC(=O)[C@H](CCCNC(=N)N)NC(=O)[C@@H](N)CCCNC(=N)N)C(=O)N[C@@H](Cc1ccc2ccccc2c1)C(=O)N[C@@H](Cc1ccc2ccccc2c1)C(=O)N[C@@H](Cc1ccc2ccccc2c1)C(=O)O [IFX-013-1, NH2-Arg-Arg-Arg-Arg-Arg-NaI-NaI-NaI-OH] (H-RRRRR[2Nal][2Nal][2Nal]-OH) | 3.1 µg/mL (≈ 2.23 µM) | 3.1 µg/mL (≈ 2.23 µM) | 25 µg/mL (≈ 18 µM) | 25 µg/mL (≈ 18 µM) | 200
N=C(N)NCCC[C@H](NC(=O)[C@H](CCCNC(=N)N)NC(=O)[C@@H](NC(=O)[C@@H](NC(=O)[C@H](CCCNC(=N)N)NC(=O)[C@@H](N)CCCNC(=N)N)C(c1ccccc1)c1ccccc1)C(c1ccccc1)c1ccccc1)C(=O)N[C@H](C(=O)O)C(c1ccccc1)c1ccccc1 [IFX-017-1, NH2-Arg-Arg-Dip-Dip-Arg-Arg-Dip-OH] (H-RR[Dip][Dip]RR[Dip]-OH) | 12.5 µg/mL (≈ 9.52 µM) | 12.5 µg/mL (≈ 9.52 µM) | 25 µg/mL (≈ 19 µM) | 25 µg/mL (≈ 19 µM) | 370
N=C(N)NCCC[C@H](NC(=O)[C@H](CCCNC(=N)N)NC(=O)[C@@H](N)CCCNC(=N)N)C(=O)N[C@H](C(=O)N[C@H](C(=O)N[C@H](C(=O)O)C(c1ccccc1)c1ccccc1)C(c1ccccc1)c1ccccc1)C(c1ccccc1)c1ccccc1 [IFX-002-1, NH2-Arg-Arg-Arg-Dip-Dip-Dip-OH] (H-RRR[Dip][Dip][Dip]-OH) | 3.1 µg/mL (≈ 2.68 µM) | 3.1 µg/mL (≈ 2.68 µM) | 25 µg/mL (≈ 21.6 µM) | 6.2 µg/mL (≈ 5.36 µM) | 265
N=C(N)NCCC[C@@H]1NC(=O)[C@H](CCN)NC(=O)[C@@H](CCCNC(=N)N)NC(=O)[C@H](CCCNC(=N)N)NC(=O)[C@@H](Cc2ccc3ccccc3c2)NC(=O)[C@@H](Cc2ccc3ccccc3c2)NC(=O)[C@H](Cc2c[nH]c3ccccc23)NC(=O)[C@H](CCN)NC(=O)[C@@H](CCCNC(=N)N)NC1=O [IFX-059, c[Arg-arg-Dab-Arg-arg-Dab-Trp-naI-naI]] (cyclo([Dab]R[dR][Dab]W[d2Nal][d2Nal]R[dR])) | 128 µg/mL (≈ 91.1 µM) | 64 µg/mL (≈ 45.5 µM) | 32 µg/mL (≈ 22.8 µM) | 32 µg/mL (≈ 22.8 µM) | 780
